# Values of other authors as cited in patent US9446139B2, “Polymer-based compositions and conjugates of HIV entry inhibitors” (Nektar Therapeutics, priority 2004, dated 2016).
# Experiments:
# [1] = 90-mg single subcutaneous dose (N=12)
substance,measurement,setting,value
enfuvirtide,mean elimination half life,[1],3.8 ± 0.6 h
same,mean±SD apparent clearance,[1],0.413 ± 0.0683 mL/min/kg
same,mean duration of each ISR,"human, in vivo",around 7 days
same,patients reporting at least one instance of painful or troublesome local injection site reactions (ISR),subcutaneous injection two times a day,98%
